Measurements taken from US11968999B2, “Use and composition of buffer formulation with multiple pH values and protein digestion enhancer” (ECO-GEO BIO-TECHNOLOGY COMPANY LIMITED, priority 2018, dated 2024).

How the values were obtained:
[1] = target: trypsin (Homo sapiens, UniProt P07477); assay: Proteolysis of casein by trypsin with ascorbic acid in citric acid buffer (OPA fluorescence, TAAE); type: biochemical
Procedure: (§1) The four test tubes were respectively incubated at 37° C. for 10 minutes, 1 hour, 2 hours and 3 hours, an equal amount of 10% trichloroacetic acid (TCA) solution was added into each test tube and mixed with the control solution uniformly, and the test tubes were held at room temperature for 10 minutes and then centrifuged at 3000 rpm for 10 minutes. 20 μL of the supernatants taken from the above-mentioned test tubes at four time points were put into four new test tubes. 2.4 mL o-phthalaldehyde (OPA) reagent was added into each new test tube and held for 2 minutes, and the fluorescence intensity was measured at EX. 340 nm and EM. 455 nm by a fluorescence spectrometer. […] The four test tubes were respectively incubated at 37° C. for 10 minutes, 1 hour, 2 hours and 3 hours, an equal amount of 10% TCA solution was added into each test tube and mixed with the experimental solution uniformly, and the test tubes were held at room temperature for 10 minutes and then centrifuged at 3000 rpm for 10 minutes. 20 μL of the supernatants taken from the above-mentioned test tubes at four time points were put into four new test tubes. 2.4 mL OPA reagent was added into each new test tube and held for 2 minutes, and the fluorescence intensity was measured at EX. 340 nm and EM. 455 nm by the fluorescence spectrometer. […] The four test tubes were respectively incubated at 37° C. for 10 minutes, 1 hour, 2 hours and 3 hours, an equal amount of 10% TCA solution was added into each test tube and mixed with the experimental solution uniformly, and the test tubes were held at room temperature for 10 minutes and then centrifuged at 3000 rpm for 10 minutes. 20 μL of the supernatants taken from the above-mentioned test tubes at four time points were put into four new test tubes. 2.4 mL OPA reagent was added into each new test tube and held for 2 minutes, and the fluorescence intensity was measured at EX. 340 nm and EM. 455 nm by the fluorescence spectrometer. […] The four test tubes were respectively incubated at 37° C. for 10 minutes, 1 hour, 2 hours and 3 hours, an equal amount of 10% TCA solution was added into each test tube and mixed with the experimental solution uniformly, and the test tubes were held at room temperature for 10 minutes and then centrifuged at 3000 rpm for 10 minutes. 20 μL of the supernatants taken from the above-mentioned test tubes at four time points were put into four new test tubes. 2.4 mL OPA reagent was added into each new test tube and held for 2 minutes, and the fluorescence intensity was measured at EX. 340 nm and EM. 455 nm by the fluorescence spectrometer. The obtained fluorescence intensity was calculated as the amount of tyrosine according to the tyrosine calibration line established in advance at the same pH value, and represented as TAAE (μg/mL). 2. […] The four test tubes were respectively incubated at 37° C. for 10 minutes, 1 hour, 2 hours and 3 hours, an equal amount of 10% TCA solution was added into each test tube and mixed with the control solution uniformly, and the test tubes were held at room temperature for 10 minutes and then centrifuged at 3000 rpm for 10 minutes. 20 μL of the supernatants taken from the above-mentioned test tubes at four time points were put into four new test tubes. 2.4 mL OPA reagent was added into each new test tube and held for 2 minutes, and the fluorescence intensity was measured at EX. 340 nm and EM. 455 nm by the fluorescence spectrometer. […] The four test tubes were respectively incubated at 37° C. for 10 minutes, 1 hour, 2 hours and 3 hours, an equal amount of 10% TCA solution was added into each test tube and mixed with the experimental solution uniformly, and the test tubes were held at room temperature for 10 minutes and then centrifuged at 3000 rpm for 10 minutes. 20 μL of the supernatants taken from the above-mentioned test tubes at four time points were put into four new test tubes. […]

[2] = target: pepsin (Homo sapiens, UniProt P0DJD8); assay: Proteolysis of casein by pepsin with ascorbic acid in citric acid buffer (OPA fluorescence, TAAE); type: biochemical
Sequence of pepsin (P0DJD8 63-388): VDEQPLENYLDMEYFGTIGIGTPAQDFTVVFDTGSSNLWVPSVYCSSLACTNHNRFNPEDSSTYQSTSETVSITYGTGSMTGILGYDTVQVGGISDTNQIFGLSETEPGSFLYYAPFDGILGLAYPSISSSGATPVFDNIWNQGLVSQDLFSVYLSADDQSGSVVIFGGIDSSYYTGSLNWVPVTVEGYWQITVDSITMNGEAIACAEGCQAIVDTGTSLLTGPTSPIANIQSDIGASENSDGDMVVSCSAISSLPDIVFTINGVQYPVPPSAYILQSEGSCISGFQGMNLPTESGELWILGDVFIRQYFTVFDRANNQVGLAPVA
Procedure: 1. […]
as §1

[3] = environment where the pH is greater than 4; cited from earlier work
[4] = pH 5.0, 60 ppm ascorbic acid, 0.1 hr
[5] = pH 5.0, 60 ppm ascorbic acid, 1 hr
[6] = pH 5.0, 60 ppm ascorbic acid, 2 hr
[7] = pH 5.0, 60 ppm ascorbic acid, 3 hr
[8] = pH 5.0, 120 ppm ascorbic acid, 0.1 hr
[9] = pH 5.0, 120 ppm ascorbic acid, 1 hr
[10] = pH 5.0, 120 ppm ascorbic acid, 2 hr
[11] = pH 5.0, 120 ppm ascorbic acid, 3 hr
[12] = pH 5.0, 240 ppm ascorbic acid, 0.1 hr
[13] = pH 5.0, 240 ppm ascorbic acid, 1 hr
[14] = pH 5.0, 240 ppm ascorbic acid, 2 hr
[15] = pH 5.0, 240 ppm ascorbic acid, 3 hr
[16] = pH 6.0, 60 ppm ascorbic acid, 0.1 hr
[17] = pH 6.0, 60 ppm ascorbic acid, 1 hr
[18] = pH 6.0, 60 ppm ascorbic acid, 2 hr
[19] = pH 6.0, 60 ppm ascorbic acid, 3 hr
[20] = pH 6.0, 120 ppm ascorbic acid, 0.1 hr
[21] = pH 6.0, 120 ppm ascorbic acid, 1 hr
[22] = pH 6.0, 120 ppm ascorbic acid, 2 hr
[23] = pH 6.0, 120 ppm ascorbic acid, 3 hr
[24] = pH 6.0, 240 ppm ascorbic acid, 0.1 hr
[25] = pH 6.0, 240 ppm ascorbic acid, 1 hr
[26] = pH 6.0, 240 ppm ascorbic acid, 2 hr
[27] = pH 6.0, 240 ppm ascorbic acid, 3 hr
[28] = pH 6.0, groups containing ascorbic acid

TAAE [1, 4]: 11.5 µg/mL
TAAE [1, 5]: 30.4 µg/mL
TAAE [1, 6]: 37.8 µg/mL
TAAE [1, 7]: 45.2 µg/mL
TAAE [1, 8]: 15.3 µg/mL
TAAE [1, 9]: 38.0 µg/mL
TAAE [1, 10]: 39.0 µg/mL
TAAE [1, 11]: 49.1 µg/mL
TAAE [1, 12]: 38.9 µg/mL
TAAE [1, 13]: 37.5 µg/mL
TAAE [1, 14]: 87.9 µg/mL
TAAE [1, 15]: 89.3 µg/mL
TAAE [1, 16]: 57.7 µg/mL
TAAE [1, 17]: 86.6 µg/mL
TAAE [1, 18]: 90.4 µg/mL
TAAE [1, 19]: 93.7 µg/mL
TAAE [1, 20]: 54.2 µg/mL
TAAE [1, 21]: 85.6 µg/mL
TAAE [1, 22]: 91.3 µg/mL
TAAE [1, 23]: 94.8 µg/mL
TAAE [1, 24]: 57.9 µg/mL
TAAE [1, 25]: 102.4 µg/mL
TAAE [1, 26]: 103.1 µg/mL
TAAE [1, 27]: 91.5 µg/mL
TAAE ([1]; pH 7.5, 60 ppm ascorbic acid, 0.1 hr): 82.6 µg/mL
TAAE ([1]; pH 7.5, 60 ppm ascorbic acid, 1 hr): 107.0 µg/mL
TAAE ([1]; pH 7.5, 60 ppm ascorbic acid, 2 hr): 103.8 µg/mL
TAAE ([1]; pH 7.5, 60 ppm ascorbic acid, 3 hr): 105.1 µg/mL
TAAE ([1]; pH 7.5, 120 ppm ascorbic acid, 0.1 hr): 78.4 µg/mL
TAAE ([1]; pH 7.5, 120 ppm ascorbic acid, 1 hr): 116.3 µg/mL
TAAE ([1]; pH 7.5, 120 ppm ascorbic acid, 2 hr): 107.3 µg/mL
TAAE ([1]; pH 7.5, 120 ppm ascorbic acid, 3 hr): 99.0 µg/mL
TAAE ([1]; pH 7.5, 240 ppm ascorbic acid, 0.1 hr): 60.4 µg/mL
TAAE ([1]; pH 7.5, 240 ppm ascorbic acid, 1 hr): 91.1 µg/mL
TAAE ([1]; pH 7.5, 240 ppm ascorbic acid, 2 hr): 100.5 µg/mL
TAAE ([1]; pH 7.5, 240 ppm ascorbic acid, 3 hr): 86.8 µg/mL
total amino acid equivalent (TAAE) ([2]; pH 2.0, 60 ppm ascorbic acid, 0.1 hr): 3.8 µg/mL
total amino acid equivalent (TAAE) ([2]; pH 2.0, 60 ppm ascorbic acid, 1 hr): 44.9 µg/mL
total amino acid equivalent (TAAE) ([2]; pH 2.0, 60 ppm ascorbic acid, 2 hr): 70.9 µg/mL
total amino acid equivalent (TAAE) ([2]; pH 2.0, 60 ppm ascorbic acid, 3 hr): 44.9 µg/mL
total amino acid equivalent (TAAE) ([2]; pH 2.0, 120 ppm ascorbic acid, 0.1 hr): 6.7 µg/mL
total amino acid equivalent (TAAE) ([2]; pH 2.0, 120 ppm ascorbic acid, 1 hr): 45.1 µg/mL
total amino acid equivalent (TAAE) ([2]; pH 2.0, 120 ppm ascorbic acid, 2 hr): 73.0 µg/mL
total amino acid equivalent (TAAE) ([2]; pH 2.0, 120 ppm ascorbic acid, 3 hr): 58.7 µg/mL
total amino acid equivalent (TAAE) ([2]; pH 2.0, 240 ppm ascorbic acid, 0.1 hr): 5.6 µg/mL
total amino acid equivalent (TAAE) ([2]; pH 2.0, 240 ppm ascorbic acid, 1 hr): 54.6 µg/mL
total amino acid equivalent (TAAE) ([2]; pH 2.0, 240 ppm ascorbic acid, 2 hr): 76.4 µg/mL
total amino acid equivalent (TAAE) ([2]; pH 2.0, 240 ppm ascorbic acid, 3 hr): 38.2 µg/mL
TAAE [2, 4]: 6.4 µg/mL
TAAE [2, 5]: 32.7 µg/mL
TAAE [2, 6]: 58.6 µg/mL
TAAE [2, 7]: 42.0 µg/mL
TAAE [2, 8]: 19.5 µg/mL
TAAE [2, 9]: 22.1 µg/mL
TAAE [2, 10]: 55.4 µg/mL
TAAE [2, 11]: 38.1 µg/mL
TAAE [2, 12]: 49.5 µg/mL
TAAE [2, 13]: 81.1 µg/mL
TAAE [2, 14]: 92.2 µg/mL
TAAE [2, 15]: 72.6 µg/mL
TAAE [2, 16]: 4.2 µg/mL
TAAE [2, 17]: 47.9 µg/mL
TAAE [2, 18]: 40.4 µg/mL
TAAE [2, 19]: 27.5 µg/mL
TAAE [2, 20]: -6.7 µg/mL
TAAE [2, 21]: 43.9 µg/mL
TAAE [2, 22]: 24.4 µg/mL
TAAE [2, 23]: 24.2 µg/mL
TAAE [2, 24]: 1.8 µg/mL
TAAE [2, 25]: 31.5 µg/mL
TAAE [2, 26]: 57.4 µg/mL
TAAE [2, 27]: 34.5 µg/mL
SMILES: O=C1O[C@H]([C@@H](O)CO)C(O)=C1O [ascorbic acid]
proteolytic efficiency of trypsin (in words) ([1]; pH 5.0, 240 ppm ascorbic acid): improves the proteolytic efficiency of the trypsin significantly
effect on proteolysis efficiency of trypsin (in words) ([1]; pH 5, pH 6 and pH 7.5, control group at pH 7.5 as comparison indicator): significant effect on the proteolysis efficiency of the trypsin
proteolytic efficiency of trypsin versus control group (in words) [1, 28]: better proteolytic efficiencies than the control group
hydrolysis efficiency of trypsin versus control group (in words) ([1]; pH 7.5, groups containing ascorbic acid): better hydrolysis efficiencies than the control group
hydrolysis efficiency of pepsin versus control group (in words) ([2]; pH 2.0, groups containing ascorbic acid): better hydrolysis efficiencies than the control group
proteolytic efficiency of pepsin (in words) ([2]; pH 5.0, 240 ppm ascorbic acid): improves the proteolytic efficiency of the pepsin significantly
effect on proteolysis efficiency of pepsin (in words) ([2]; pH 5, pH 6 and pH 2, control group at pH 2 as comparison indicator): significant effect on the proteolysis efficiency of the pepsin
proteolytic efficiency of pepsin versus control group (in words) [2, 28]: better proteolytic efficiencies than the control group
stability (degradation) of ascorbic acid (in words) [3]: easily degraded
